Data as given in ChEMBL document CHEMBL1201862, “PubChem BioAssay data set” (2004).
Counter-ions that a name gives are not always drawn. The source made the active and inactive calls.

Tests used:
HEK293 [1] = test: cells; type: functional, cell-based; conditions: Homo sapiens
[2] = target: T1, Nuclear receptor subfamily 0 group B member 1 (Homo sapiens, UniProt P51843); test: Luminescence-based cell-based high throughput dose response assay for inhibitors of the orphan nuclear receptor subfamily 0, group B, member 1 (DAX1; NR0B1). [Related pubchem assays (depositor defined):AID504766, AID504790]; type: functional
T1 sequence (P51843 whole entry): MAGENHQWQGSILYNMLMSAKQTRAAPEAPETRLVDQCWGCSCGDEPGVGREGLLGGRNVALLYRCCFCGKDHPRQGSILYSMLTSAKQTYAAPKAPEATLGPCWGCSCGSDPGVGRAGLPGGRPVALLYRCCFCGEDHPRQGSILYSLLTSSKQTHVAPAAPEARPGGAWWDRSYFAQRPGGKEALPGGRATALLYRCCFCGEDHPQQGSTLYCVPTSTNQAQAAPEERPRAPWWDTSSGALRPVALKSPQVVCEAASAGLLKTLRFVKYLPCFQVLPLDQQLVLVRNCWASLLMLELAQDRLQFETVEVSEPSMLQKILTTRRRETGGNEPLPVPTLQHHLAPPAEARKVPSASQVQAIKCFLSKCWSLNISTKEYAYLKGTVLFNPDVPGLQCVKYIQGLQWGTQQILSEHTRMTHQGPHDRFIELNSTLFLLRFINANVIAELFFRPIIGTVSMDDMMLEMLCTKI

[3] = acridine orange displacement from DNA – biochemical, fluorescence polarization, cherry-pick, artefact control for RAD54 inhibitor project, dose response (AID 651673); type: functional
[4] = target: T2, DNA repair and recombination protein RAD54-like (Homo sapiens, UniProt Q92698); test: RAD54 Holliday junction migration blockers – biochemical, fluorescence, cherry-picked samples, dose series, confirmation (AID 651657); type: functional
T2 sequence (Q92698 whole entry): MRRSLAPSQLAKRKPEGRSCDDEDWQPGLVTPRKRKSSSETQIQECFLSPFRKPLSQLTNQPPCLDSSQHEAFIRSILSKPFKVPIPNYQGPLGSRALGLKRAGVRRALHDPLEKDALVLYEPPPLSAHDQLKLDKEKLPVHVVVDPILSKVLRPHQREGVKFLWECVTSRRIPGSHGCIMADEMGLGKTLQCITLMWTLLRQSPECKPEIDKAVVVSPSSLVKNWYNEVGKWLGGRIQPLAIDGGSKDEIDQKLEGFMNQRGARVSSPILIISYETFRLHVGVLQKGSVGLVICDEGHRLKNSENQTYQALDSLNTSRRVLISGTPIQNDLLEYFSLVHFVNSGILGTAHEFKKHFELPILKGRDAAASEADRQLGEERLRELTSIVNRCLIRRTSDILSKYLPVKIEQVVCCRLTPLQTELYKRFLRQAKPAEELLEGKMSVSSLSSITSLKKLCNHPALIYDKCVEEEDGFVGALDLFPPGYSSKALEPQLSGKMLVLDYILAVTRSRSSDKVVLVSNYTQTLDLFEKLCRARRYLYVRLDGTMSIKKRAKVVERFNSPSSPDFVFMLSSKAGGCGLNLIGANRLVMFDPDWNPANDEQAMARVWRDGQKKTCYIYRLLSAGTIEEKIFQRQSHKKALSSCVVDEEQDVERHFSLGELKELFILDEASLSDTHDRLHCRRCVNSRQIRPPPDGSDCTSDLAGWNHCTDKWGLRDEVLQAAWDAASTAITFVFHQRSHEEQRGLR

[5] = target: T3, DNA repair protein RAD52 homolog (Homo sapiens, UniProt P43351); type: functional, biochemical
T3 sequence (P43351 whole entry): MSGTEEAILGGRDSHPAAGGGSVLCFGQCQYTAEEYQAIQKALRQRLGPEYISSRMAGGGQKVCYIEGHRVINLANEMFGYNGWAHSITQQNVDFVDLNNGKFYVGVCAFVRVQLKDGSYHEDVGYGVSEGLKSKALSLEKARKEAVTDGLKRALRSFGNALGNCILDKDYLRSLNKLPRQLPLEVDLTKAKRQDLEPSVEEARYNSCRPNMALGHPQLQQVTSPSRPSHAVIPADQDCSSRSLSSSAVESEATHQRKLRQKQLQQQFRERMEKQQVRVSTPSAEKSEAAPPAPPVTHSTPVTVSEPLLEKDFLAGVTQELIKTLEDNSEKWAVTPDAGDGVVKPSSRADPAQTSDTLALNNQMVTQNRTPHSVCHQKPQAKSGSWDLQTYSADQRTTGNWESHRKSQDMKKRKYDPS

HEK293 [6] = test: cells; conditions: Homo sapiens
HEK293 [7] = test: cells; conditions: Homo sapiens; remark: listed apart in the source
BJ [8] = test: BJ-TERT fibroblast viability loss – cell-based, RAS-independent, luminescence, dose response (AID 1933); type: functional; conditions: Homo sapiens
BJ [9] = test: cells; type: functional, cell-based; conditions: Homo sapiens
BJ [10] = test: BJ-TERT-LT-ST fibroblast viability loss – cell-based, RAS-independent, luminescence, dose response (AID 1935); type: functional; conditions: Homo sapiens;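 also: BJ fibroblasts immortalized with TERT plus LT and ST oncogenes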
[11] = DRD fibroblast viability loss – cell-based, non-viral oncogenic, luminescence, dose response (AID 1934); type: functional; conditions: Homo sapiens
HeLa = test: viability loss in HeLa cells – cell-based, 24 h, cherry-picked samples, cytotoxicity control, dose response (AID 504726); type: functional; conditions: Homo sapiens;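 also: potency for cytotoxicity as loss of luminescence signal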
ORF 73 = ORF 73 (Human herpesvirus 8, UniProt O40947); test: KSHV LANA DNA-binding disruption – biochemical, fluorescence polarization, cherry-picked samples, dose response (AID 504725); parameters: species or system Human gammaherpesvirus 8;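 also: fluorescence polarization of a labeled DNA duplex reporting LANA DNA binding; potency is for inhibitors that block LANA binding to the DNA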
Sequence of ORF 73 (O40947 whole entry): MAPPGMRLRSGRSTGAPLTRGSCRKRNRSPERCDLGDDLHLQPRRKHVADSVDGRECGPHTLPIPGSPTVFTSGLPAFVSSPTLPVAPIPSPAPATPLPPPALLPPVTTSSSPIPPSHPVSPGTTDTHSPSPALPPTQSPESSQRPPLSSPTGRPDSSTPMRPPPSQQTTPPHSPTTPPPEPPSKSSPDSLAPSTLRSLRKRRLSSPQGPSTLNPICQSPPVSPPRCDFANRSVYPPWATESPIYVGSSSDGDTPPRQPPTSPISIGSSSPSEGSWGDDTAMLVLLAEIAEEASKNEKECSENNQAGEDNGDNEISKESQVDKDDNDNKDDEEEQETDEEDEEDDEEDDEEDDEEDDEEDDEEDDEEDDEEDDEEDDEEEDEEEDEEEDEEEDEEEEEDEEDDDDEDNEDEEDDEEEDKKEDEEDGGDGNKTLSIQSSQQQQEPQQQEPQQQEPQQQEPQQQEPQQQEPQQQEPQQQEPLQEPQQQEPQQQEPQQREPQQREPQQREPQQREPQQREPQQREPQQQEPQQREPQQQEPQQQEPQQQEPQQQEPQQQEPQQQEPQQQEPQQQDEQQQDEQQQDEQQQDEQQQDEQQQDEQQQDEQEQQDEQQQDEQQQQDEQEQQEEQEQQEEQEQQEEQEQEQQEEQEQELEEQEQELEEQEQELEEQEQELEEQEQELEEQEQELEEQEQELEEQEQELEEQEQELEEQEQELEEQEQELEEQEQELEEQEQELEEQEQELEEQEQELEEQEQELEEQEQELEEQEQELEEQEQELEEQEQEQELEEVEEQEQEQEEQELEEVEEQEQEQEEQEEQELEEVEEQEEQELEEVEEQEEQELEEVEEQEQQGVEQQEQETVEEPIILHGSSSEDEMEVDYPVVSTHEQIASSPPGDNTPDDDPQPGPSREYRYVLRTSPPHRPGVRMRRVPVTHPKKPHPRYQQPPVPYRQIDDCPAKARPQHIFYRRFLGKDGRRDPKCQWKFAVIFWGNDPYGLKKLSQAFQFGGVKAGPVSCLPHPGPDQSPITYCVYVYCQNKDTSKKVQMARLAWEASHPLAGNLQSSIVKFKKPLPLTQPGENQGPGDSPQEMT

[12] = HEK-293T viability loss after treatment – luminescence, T-cell screen hits, cytotoxicity control for TCR NF-kB inhibitor project, dose response (AID 489026); type: functional, cell-based;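 also: cells exposed to compound about 14 hours before the viability readout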
[13] = target: UDP-galactopyranose mutase (Mycobacterium tuberculosis, UniProt P9WIQ1); test: Inhibitors of Mycobacterium tuberculosis UDP-galactopyranose mutase (UGM) enzyme Measured in Biochemical System Using Plate Reader - 2105-02_Inhibitor_Dose_CherryPick_Activity. [Related pubchem assays (depositor defined):AID504439]
Sequence of UDP-galactopyranose mutase (P9WIQ1 whole entry): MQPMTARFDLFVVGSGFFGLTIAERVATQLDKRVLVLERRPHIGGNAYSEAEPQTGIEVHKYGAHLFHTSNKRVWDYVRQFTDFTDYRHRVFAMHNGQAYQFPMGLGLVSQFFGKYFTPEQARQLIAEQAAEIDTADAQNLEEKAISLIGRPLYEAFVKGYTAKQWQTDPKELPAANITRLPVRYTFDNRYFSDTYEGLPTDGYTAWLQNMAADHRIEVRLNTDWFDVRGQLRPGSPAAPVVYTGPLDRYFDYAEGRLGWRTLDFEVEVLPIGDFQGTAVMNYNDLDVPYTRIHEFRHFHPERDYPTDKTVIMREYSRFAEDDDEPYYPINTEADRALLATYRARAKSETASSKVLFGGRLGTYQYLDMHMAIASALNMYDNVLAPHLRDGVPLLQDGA

Insulin-degrading enzyme [14] = target: T4, Insulin-degrading enzyme (Homo sapiens, UniProt P14735); test: recombinant IDE activation, cell-free – biochemical, fluorescence polarization, counter-screen for IDE activator project, dose response (AID 588681)
T4 sequence (P14735 whole entry): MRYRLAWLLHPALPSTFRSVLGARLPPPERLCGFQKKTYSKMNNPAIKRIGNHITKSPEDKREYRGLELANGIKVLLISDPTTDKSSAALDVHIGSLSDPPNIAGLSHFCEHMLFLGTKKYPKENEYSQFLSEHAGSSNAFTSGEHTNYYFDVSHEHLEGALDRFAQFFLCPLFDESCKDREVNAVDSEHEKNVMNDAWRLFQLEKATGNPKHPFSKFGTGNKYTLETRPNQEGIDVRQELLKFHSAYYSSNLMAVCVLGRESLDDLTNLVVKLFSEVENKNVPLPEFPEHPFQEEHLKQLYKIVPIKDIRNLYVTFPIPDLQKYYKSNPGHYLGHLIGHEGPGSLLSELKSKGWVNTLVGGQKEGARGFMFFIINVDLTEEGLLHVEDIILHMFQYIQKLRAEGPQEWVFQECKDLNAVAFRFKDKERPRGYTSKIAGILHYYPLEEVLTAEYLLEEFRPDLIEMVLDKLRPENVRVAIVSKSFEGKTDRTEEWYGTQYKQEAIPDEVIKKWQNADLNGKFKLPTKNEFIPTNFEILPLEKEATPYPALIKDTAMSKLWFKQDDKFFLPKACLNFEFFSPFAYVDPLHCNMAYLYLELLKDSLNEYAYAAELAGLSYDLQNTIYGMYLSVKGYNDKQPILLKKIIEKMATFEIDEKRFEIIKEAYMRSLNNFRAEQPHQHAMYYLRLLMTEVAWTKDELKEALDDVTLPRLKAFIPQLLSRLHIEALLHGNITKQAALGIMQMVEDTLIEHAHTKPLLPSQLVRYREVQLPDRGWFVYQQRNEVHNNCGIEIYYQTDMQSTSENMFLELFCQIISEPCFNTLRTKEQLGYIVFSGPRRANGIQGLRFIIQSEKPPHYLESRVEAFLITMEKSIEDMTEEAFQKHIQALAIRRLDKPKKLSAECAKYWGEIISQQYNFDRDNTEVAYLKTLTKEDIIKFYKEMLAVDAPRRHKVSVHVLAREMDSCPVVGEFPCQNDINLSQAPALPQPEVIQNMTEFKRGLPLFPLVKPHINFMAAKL

Keap1/Nrf2 = Keap1/Nrf2 (Homo sapiens, UniProt Q14145); test: disruptors of Keap1 binding to Nrf2 peptide – biochemical, fluorescence polarization, cherry-picked samples, dose response (AID 588683)
Sequence of Keap1/Nrf2 (Q16236 whole entry): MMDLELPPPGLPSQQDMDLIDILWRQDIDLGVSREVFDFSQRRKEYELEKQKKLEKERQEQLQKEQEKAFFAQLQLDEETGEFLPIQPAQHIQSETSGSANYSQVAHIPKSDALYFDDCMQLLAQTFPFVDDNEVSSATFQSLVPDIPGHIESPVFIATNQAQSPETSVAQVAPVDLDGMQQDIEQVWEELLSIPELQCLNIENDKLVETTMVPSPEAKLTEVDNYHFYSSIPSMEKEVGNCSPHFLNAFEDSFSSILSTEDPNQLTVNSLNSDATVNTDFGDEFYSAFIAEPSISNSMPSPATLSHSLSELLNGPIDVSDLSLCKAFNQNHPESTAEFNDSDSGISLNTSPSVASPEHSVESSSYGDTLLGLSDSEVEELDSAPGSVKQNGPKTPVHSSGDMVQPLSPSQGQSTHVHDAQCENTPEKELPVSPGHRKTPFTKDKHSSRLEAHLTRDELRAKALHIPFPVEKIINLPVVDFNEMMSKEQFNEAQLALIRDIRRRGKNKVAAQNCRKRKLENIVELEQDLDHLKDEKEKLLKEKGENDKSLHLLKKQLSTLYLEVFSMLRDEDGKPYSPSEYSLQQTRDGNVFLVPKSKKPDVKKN
Sequence of Keap1/Nrf2 (Q14145 whole entry): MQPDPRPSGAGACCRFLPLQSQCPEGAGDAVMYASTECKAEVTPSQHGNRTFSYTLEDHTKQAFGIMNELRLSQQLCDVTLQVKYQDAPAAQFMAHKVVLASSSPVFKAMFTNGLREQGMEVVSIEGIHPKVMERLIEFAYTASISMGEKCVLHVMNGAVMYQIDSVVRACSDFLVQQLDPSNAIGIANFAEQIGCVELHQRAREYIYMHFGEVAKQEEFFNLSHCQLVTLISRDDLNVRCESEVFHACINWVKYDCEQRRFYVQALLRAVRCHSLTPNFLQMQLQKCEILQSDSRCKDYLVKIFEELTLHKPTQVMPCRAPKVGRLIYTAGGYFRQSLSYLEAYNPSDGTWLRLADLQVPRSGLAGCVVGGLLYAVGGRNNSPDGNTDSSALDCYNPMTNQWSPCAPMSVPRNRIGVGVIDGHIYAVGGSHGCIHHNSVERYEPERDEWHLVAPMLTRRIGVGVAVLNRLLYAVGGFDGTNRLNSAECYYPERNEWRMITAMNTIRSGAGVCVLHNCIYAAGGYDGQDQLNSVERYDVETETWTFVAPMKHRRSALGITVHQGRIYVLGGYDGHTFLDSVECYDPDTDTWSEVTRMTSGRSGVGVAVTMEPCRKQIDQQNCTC

BJ [15] = test: growth inhibition of engineered Ras-driven BJ cells – cell-based, alamar blue fluorescence, cherrypicked samples, dose response (AID 2631); type: functional; conditions: Homo sapiens;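 also: confirmatory dose-response assay in RAS-dependent BJ fibroblasts engineered with TERT, LT and ST, with cytotoxicity read by fluorescence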
Insulin-degrading enzyme [16] = target: T4, Insulin-degrading enzyme; test: cellular IDE activation of Abeta substrate cleavage – fluorescence polarization, HEK cells, dose response (AID 588439); type: functional, cell-based
HEK293 [17] = test: membrane integrity loss in HEK cells – cell-based, fluorescence, cytotoxicity control for IDE activator project, dose response (AID 588440); type: functional; conditions: Homo sapiens;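 also: cytotoxicity by LDH release measuring loss of membrane integrity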
HEK293 [18] = test: optical interference in Abeta FP readout, dose response, artefact control for IDE activator project, biochemical, fluorescence polarization (AID 588442); type: functional, cell-based; conditions: Homo sapiens
P388/ADR = test: cells; type: functional; conditions: Mus musculus
SN12K1 = test: cells; type: functional; conditions: Homo sapiens
P388 = test: cells; type: functional; conditions: Mus musculus
Paired box protein Pax-8 = Paired box protein Pax-8 (Homo sapiens, UniProt Q06710); test: PAX8 transcriptional activity inhibition in RMG-I – RMG-I cells, luciferase, cherry-pick, dose response (AID 687027); type: functional, cell-based;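 also: luciferase reporter driven by Pax8 target thyroperoxidase promoter measured by SteadyGlo luminescence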
Sequence of Paired box protein Pax-8 (Q06710 whole entry): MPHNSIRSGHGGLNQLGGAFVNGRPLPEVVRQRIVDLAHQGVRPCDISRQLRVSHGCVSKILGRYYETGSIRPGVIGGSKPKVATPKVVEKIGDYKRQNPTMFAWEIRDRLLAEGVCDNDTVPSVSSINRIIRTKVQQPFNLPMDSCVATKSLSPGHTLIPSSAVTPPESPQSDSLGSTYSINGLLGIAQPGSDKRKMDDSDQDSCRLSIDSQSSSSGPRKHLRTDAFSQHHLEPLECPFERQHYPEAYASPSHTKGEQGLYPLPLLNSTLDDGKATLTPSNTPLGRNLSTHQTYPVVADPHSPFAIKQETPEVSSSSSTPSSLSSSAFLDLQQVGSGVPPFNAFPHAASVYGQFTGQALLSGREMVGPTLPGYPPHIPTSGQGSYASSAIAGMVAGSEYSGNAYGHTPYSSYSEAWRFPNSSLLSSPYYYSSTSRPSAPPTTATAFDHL

[19] = rise of 2N DNA cells, HeLa – IC50, dose response (AID 1117349); type: functional, cell-based
[20] = CellTiter-Glo luminescence survival assay, SW480 colon tumor line, concentration-response curve, half-maximal inhibitory concentration (AID 1117338); type: functional
[21] = RKO cell viability reduction, dose response, CellTiter-Glo luminescence (AID 1117322); type: functional
[22] = cytotoxicity toward HCT116 cells – cell-based, CellTiter-Glo luminescence, IC50, dose response (AID 1117332); type: functional; conditions: HCT-116
[23] = SNU-C1 cell viability reduction, dose response, CellTiter-Glo luminescence (AID 1117323); type: functional, cell-based
[24] = rise of 4N DNA cells, HeLa – IC50, dose response (AID 1117351); type: functional, cell-based
[25] = cytotoxicity toward HT-29 cells – cell-based, CellTiter-Glo luminescence, IC50, dose response (AID 1117330); type: functional
[26] = Reduced DLD-1 viability, concentration-response, CellTiter-Glo luminescence (AID 1117352); type: functional
[27] = HCT116 cell viability decrease, GSK3B pretreatment – CellTiter-Glo, IC50, dose response (AID 1117339); type: functional; conditions: HCT-116

Compound: COc1cc2c3c(cccc3c1)C(=O)N(CCN1CCCC1)C2=O
- IC50 (HEK293 [1]): > 67600 nM (inactive)
- IC50 [2]: > 67600 nM (inactive)
- AC50 [3]: 37100 nM (active)
- AC50 [4]: 2160 nM (active)
- AC50 [5]: 5720 nM (active)
- EC50 (HEK293 [6]): > 59700 nM (inactive)
- EC50 (HEK293 [7]): > 59700 nM (inactive)

Compound: CC[C@@]1(O)C(=O)OCc2c1cc1n(c2=O)Cc2cc3c(CN(C)C)c(O)ccc3nc2-1 [TOPOTECAN HYDROCHLORIDE]
- EC50 (BJ [8]): 11300 nM (active)
- EC50 (BJ [9]): 246 nM (active)
- EC50 (BJ [10]): 159 nM (active)
- EC50 [11]: 549 nM (active)
- AC50 (HeLa): 17100 nM (active)
- AC50 (ORF 73): 2150 nM (active)
- IC50 [12]: > 80000 nM (inactive)
- AC50 [13]: 6860 nM (active)
- EC50 (Insulin-degrading enzyme [14]): > 54700 nM (inactive)
- AC50 (Keap1/Nrf2): 3700 nM (active)
- EC50 (BJ [15]): 19.8 nM (active)
- EC50 (Insulin-degrading enzyme [16]): > 54700 nM (inactive)
- IC50 (HEK293 [17]): > 89200 nM (inactive)
- EC50 (HEK293 [18]): > 54700 nM (inactive)
- GI50 (P388/ADR): 136 nM (active)
- GI50 (SN12K1): 26.7 nM (active)
- GI50 (P388): 29 nM (active)
- AC50 (Paired box protein Pax-8): < 260 nM (active)
- IC50 [19]: 13.6 nM (active)
- IC50 [20]: 233 nM (active)
- IC50 [21]: 34.2 nM (active)
- IC50 [22]: 34.1 nM (active)
- IC50 [23]: 301 nM (active)
- IC50 [24]: > 10000 nM (inactive)
- IC50 [25]: 24.6 nM (active)
- IC50 [26]: 177 nM (active)
- IC50 [27]: 1.44 nM (active)
